Source: patent publication US10889573B2, “Anthelmintic quinoline-3-carboxamide derivatives” (Bayer Animal Health GMBH, priority 2016, dated 2021)

Experiments:
[1] = log P by HPLC on reversed phase columns (Method L0); conditions: HPLC on reversed phase columns, Method L0
Method: Measurement of log P values was performed according to EEC directive 79/831 Annex V.A8 by HPLC (High Performance Liquid Chromatography) on reversed phase columns with the following methods: • ^[a] log P value is determined by measurement of LC-UV, in an acidic range, with 0.1% formic acid in water and acetonitrile as eluent (linear gradient from 10% acetonitrile to 95% acetonitrile). • ^[b] log P value is determined by measurement of LC-UV, in a neutral range, with 0.001 molar ammonium acetate solution in water and acetonitrile as eluent (linear gradient from 10% acetonitrile to 95% acetonitrile).
Calibration was done with straight-chain alkan-2-ones (with 3 to 16 carbon atoms) with known log P values (measurement of log P values using retention times with linear interpolation between successive alkanones).

[2] = system: Nippostrongylus brasiliensis; test: In vitro assay 2: Nippostrongylus brasiliensis (NIPOBR), acetylcholine esterase readout; conditions: read-out: activity (reduction of AChE compared to negative control); for inhibition at 1 µg/mL: 1 μg/ml; for inhibition at 10 µg/mL: 10 μg/ml
Method: In Vitro Assay 2: Nippostrongylus brasiliensis (NIPOBR)
Adult Nippostrongylus brasiliensis were washed with saline buffer containing 100 U/ml penicillin, 0.1 mg/ml streptomycin and 2.5 μg/ml amphotericin B. Test compounds were dissolved in DMSO and worms were incubated in medium in a final concentration of 10 μg/ml (10 ppm) respectively 1 μg/ml (1 ppm). An aliquot of the medium was used to determine the acetylcholine esterase activity in comparison to a negative control. The principle of measuring acetylcholine esterase as readout for anthelmintic activity was described in Rapson et al (1986) and Rapson et al (1987).

[3] = system: Dirofilaria immitis microfilariae; test: In vitro assay 3: Dirofilaria immitis microfilariae (DIROIM L1), motility; conditions: 72 h, read-out: EC50 (reduction of motility), 72 h incubation
[4] = system: Dirofilaria immitis third-stage larvae; test: In vitro assay 4: Dirofilaria immitis (DIROIM L4), motility; conditions: 72 h, read-out: EC50 (reduction of motility)
Cooperia curticei = conditions: Cooperia curticei, 120 h, read-out: activity (larval mortality)
Method: In Vitro Assay 6: Cooperia curticei (COOPCU L3)
Solvent: dimethyl sulfoxide
Approximately 40 nematode larvae (Cooperia curticei) are transferred into a test tube containing the compound solution.
After 5 days percentage of larval mortality is recorded. 100% efficacy means all larvae are killed; 0% efficacy means no larvae are killed.

Haemonchus contortus = conditions: 120 h, read-out: activity (larval mortality)
Method: In Vitro Assay 7: Haemonchus contortus (HAEMCO L3)
Solvent: dimethyl sulfoxide
Approximately 40 larvae of the red stomach worm (Haemonchus contortus) are transferred into a test tube containing compound solution.
After 5 days the percentage of larval mortality is recorded. 100% efficacy means all larvae are killed, 0% efficacy means no larvae are killed.

C. elegans Slo-1a = C. elegans Slo-1a (Caenorhabditis elegans, UniProt Q95V25); conditions: pE50 (negative decadic logarithm of EC50), CHO cells expressing C. elegans Slo-1a, voltage sensitive dye
Chain of C. elegans Slo-1a (Q95V25 whole entry): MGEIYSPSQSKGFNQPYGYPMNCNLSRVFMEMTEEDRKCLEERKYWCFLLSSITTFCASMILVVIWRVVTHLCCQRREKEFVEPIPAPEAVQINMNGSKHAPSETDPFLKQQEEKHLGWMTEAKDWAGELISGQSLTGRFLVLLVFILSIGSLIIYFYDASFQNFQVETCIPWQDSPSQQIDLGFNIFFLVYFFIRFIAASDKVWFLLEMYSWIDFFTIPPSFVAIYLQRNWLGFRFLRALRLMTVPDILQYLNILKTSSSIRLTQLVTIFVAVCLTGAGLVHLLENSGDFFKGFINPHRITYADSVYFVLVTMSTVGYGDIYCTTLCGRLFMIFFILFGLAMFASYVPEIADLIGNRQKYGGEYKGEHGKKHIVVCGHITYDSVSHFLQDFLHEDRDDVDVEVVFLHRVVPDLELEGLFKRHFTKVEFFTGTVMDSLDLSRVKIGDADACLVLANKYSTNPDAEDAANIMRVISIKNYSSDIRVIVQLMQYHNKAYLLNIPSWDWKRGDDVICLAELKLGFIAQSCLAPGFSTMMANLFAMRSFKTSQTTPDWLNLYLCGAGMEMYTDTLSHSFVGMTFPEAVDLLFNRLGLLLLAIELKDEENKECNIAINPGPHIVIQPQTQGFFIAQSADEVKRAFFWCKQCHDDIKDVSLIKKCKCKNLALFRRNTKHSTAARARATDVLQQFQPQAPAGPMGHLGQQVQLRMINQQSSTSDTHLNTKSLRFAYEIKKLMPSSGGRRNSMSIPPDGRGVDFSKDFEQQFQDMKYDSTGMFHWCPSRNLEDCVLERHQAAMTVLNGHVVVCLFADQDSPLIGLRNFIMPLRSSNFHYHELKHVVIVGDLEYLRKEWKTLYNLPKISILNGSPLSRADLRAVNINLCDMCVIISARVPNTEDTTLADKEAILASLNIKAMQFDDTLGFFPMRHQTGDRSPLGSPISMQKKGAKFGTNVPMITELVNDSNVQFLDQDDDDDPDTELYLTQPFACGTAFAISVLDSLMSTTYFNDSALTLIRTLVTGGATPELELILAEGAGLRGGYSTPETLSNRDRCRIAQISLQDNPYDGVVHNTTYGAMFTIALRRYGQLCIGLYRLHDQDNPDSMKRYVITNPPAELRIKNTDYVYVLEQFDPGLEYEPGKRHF
Method: In Vitro Assay 1: C. elegans Slo-1a—Action at a Recombinant C. elegans Cell Line
Cells were cultured at 37° C. and 5% CO2 in MEMalpha with Gutamax I (Invitrogen, Nr.: 32571), supplemented with 10% (v/v) heat inactivated fetal bovine serum (Invitrogen, Nr.: 10500), G418 (1 mg/ml, Invitrogen, Nr.: 10131). Cells were detached using Accutase (Sigma, Nr.: A6964).
Membrane Potential Measurements
Laboratory compound testing was performed on 384-well microtiter plates (MTPs, Greiner, Nr.: 781092). 8000 cells/well were plated onto 384-well MTPs and cultured for 20 to 24 hours at 37° C. and 5% CO2. After removal of the cell culture medium, the cells were washed once with tyrode (150 mM NaCl, 0.3 mM KCl, 2 mM CaCl2, 1 mM MgCl2, 0.8 mM NaH2PO4, 5 mM Glucose, 28 mM Hepes, pH 7.4) and then loaded with the voltage sensitive dye of the Membrane Potential Assay Kit diluted in tyrode for 1 h at room temperature.
After starting the measurement of fluorescence using a FLIPR Tetra (Molecular Devices, Exc. 510-545 nm, Emm. 565-625 nm), test compounds were added followed by the addition of KCl tyrode (final assay concentration: 70 mM KCl, 2 mM CaCl2, 1 mM MgCl2, 0.8 mM NaH2PO4, 5 mM Glucose, 28 mM Hepes, pH 7.4, including the voltage sensitive dye). The measurement was completed after 7 minutes.
The data were evaluated by using the ActivityBase XLfit software (IDBS) for curve fitting and calculation of the half-maximal effective concentration (EC50) and are reported as negative decadic logarithm (pE50).

Structure (SMILES) | logP (Method L0)[a] [1] | logP (Method L0)^[a] [1] | inhibition at 1 µg/mL [2] | EC50 [3] | EC50 [4] | mortality at 4 ppm (Cooperia curticei) | mortality at 20 ppm (Cooperia curticei) | mortality at 4 ppm (Haemonchus contortus) | mortality at 20 ppm (Haemonchus contortus) | EC50 (C. elegans Slo-1a) | logP (Method L0) [1] | inhibition at 10 µg/mL [2]
CCN(CCOC)c1c(C(=O)N[C@H]2CCc3ccccc32)cnc2c(-c3cc(Cl)cc(Cl)c3)cccc12 [Example 90] | 4.9 | – | – | – | – | – | – | – | – | – | – | –
CCS(=O)(=O)c1c(C(=O)N[C@H]2CCOc3ccccc32)cnc2c(-c3cc(Cl)cc(Cl)c3)cccc12 [Example 371] | – | 4.54 | – | – | – | – | – | – | – | – | – | –
CCSc1c(C(=O)N[C@H]2CCOc3ccccc32)cnc2c(-c3cc(Cl)cc(Cl)c3)cccc12 [Example 367] | – | 5.48 | – | – | – | – | – | – | – | – | – | –
CN(C)c1c(C(=O)N[C@H]2CCOc3ccccc32)cnc2c(-c3cc(Cl)cc(Cl)c3)cccc12 [Example 8] | 2.53 | – | – | – | – | – | – | – | – | – | – | –
CN(C)c1c(C(=O)N[C@H]2CCOc3cc(F)ccc32)cnc2c(-c3cc(Cl)cc(Cl)c3)cccc12 [Example 152] | 3 | – | – | – | – | – | – | – | – | – | – | –
CN(C)C(=O)CCNc1c(C(=O)N[C@H]2CCc3ccccc32)cnc2c(-c3cc(Cl)cc(Cl)c3)cccc12 [Example 122] | 2 | – | – | – | – | – | – | – | – | – | – | –
C[C@H](Nc1c(C(=O)N[C@H]2CCc3ccccc32)cnc2c(-c3cc(Cl)cc(Cl)c3)cccc12)C(N)=O [Example 127] | 1.9 | – | – | – | – | – | – | – | – | – | – | –
O=C(N[C@H]1CCOc2ccccc21)c1cnc2c(-c3cc(F)cc(F)c3F)cccc2c1C1COC1 [Example 660, N-[(4S)-3,4-dihydro-2H-chromen-4-yl]-4-(oxetan-3-yl)-8-(2,3,5-trifluorophenyl)quinoline-3-carboxamide] | – | – | > 80% | < 0.1 µg/mL | < 0.1 µg/mL | 100% | 100% | 100% | 100% | < 3.16 nM | – | –
CCOP(=O)(CN(C)c1c(C(=O)N[C@H]2CCOc3ccccc32)cnc2c(-c3cc(Cl)cc(Cl)c3)cccc12)OCC [Example 285] | – | – | – | – | – | – | – | – | – | – | 4.62 | –
O=C(N[C@H]1CCOc2ccccc21)c1cnc2c(-c3cc(Cl)ccc3F)c(F)ccc2c1N1CCOCC1 [Example 170] | – | – | > 80% | < 0.1 µg/mL | < 0.1 µg/mL | 100% | 100% | 100% | 100% | < 3.16 nM | – | –
CN(CCN1CCOCC1)c1c(C(=O)N[C@H]2CCOc3ccccc32)cnc2c(-c3cc(Cl)cc(Cl)c3)cccc12 [Example 149] | 2.2 | – | – | – | – | – | – | – | – | – | – | –
O=C(N[C@H]1CCOc2ccccc21)c1cnc2c(-c3cc(F)cc(F)c3F)c(F)ccc2c1N1CCOCC1 [Example 540] | – | 3.72 | – | – | – | – | – | – | – | – | – | –
O=C(N[C@H]1CCOc2ccccc21)c1cnc2c(-c3cccc(Cl)c3)cccc2c1N1CCC(O)C1 (mixture of isomers) [Example 260] | – | – | > 80% | < 0.1 µg/mL | < 0.1 µg/mL | 80% | 90% | 80% | 90% | < 3.16 nM | – | –
COc1ccc(-c2cc(Cl)cc(Cl)c2)c2ncc(C(=O)N[C@H]3CCOc4ccccc43)c(N(C)C)c12 [Example 504] | – | – | > 80% | < 0.1 µg/mL | < 0.1 µg/mL | 100% | 100% | 100% | 100% | < 3.16 nM | – | –
Cc1cc(Cl)cc(-c2cccc3c(N4CCC(O)C4)c(C(=O)N[C@H]4CCOc5ccccc54)cnc23)c1F (mixture of isomers) [Example 272] | – | – | > 80% | < 0.1 µg/mL | < 0.1 µg/mL | – | 80% | 90% | 90% | < 3.16 nM | – | –
CN(C)c1c(C(=O)N[C@H]2CCOc3ccccc32)cnc2c(-c3cccc(C(F)(F)F)c3F)cccc12 [Example 50] | – | – | > 80% | < 0.1 µg/mL | < 0.1 µg/mL | 80% | 90% | 90% | 100% | < 3.16 nM | – | > 80%
CN(C)c1c(C(=O)N[C@H]2CCOc3ccccc32)cnc2c(-c3ccc(F)cc3Cl)c(F)ccc12 [Example 172] | – | – | > 80% | < 0.1 µg/mL | < 0.1 µg/mL | 100% | 100% | 80% | 100% | < 3.16 nM | – | –
CC(C)c1c(C(=O)N[C@H]2CCOc3ccccc32)cnc2c(-c3cccc(C(F)(F)F)c3)cccc12 [Example 411] | – | – | > 80% | < 0.1 µg/mL | < 0.1 µg/mL | 100% | 100% | 100% | 100% | < 3.16 nM | – | –
O=C(N[C@H]1CCOc2ccccc21)c1cnc2c(-c3cc(Cl)ccc3F)cccc2c1N1CCOCC1 [Example 221] | – | – | > 80% | < 0.1 µg/mL | < 0.1 µg/mL | 90% | 100% | 90% | 100% | < 3.16 nM | – | –
O=C(N[C@H]1CCOc2ccccc21)c1cnc2c(-c3cccc(Cl)c3F)cccc2c1N1CCOCC1 [Example 226] | – | – | > 80% | < 0.1 µg/mL | < 0.1 µg/mL | 100% | 100% | 90% | 100% | < 3.16 nM | – | –
O=C(N[C@H]1CCOc2ccccc21)c1cnc2c(-c3cc(Cl)cc(C(F)(F)F)c3)cccc2c1N1CCOCC1 [Example 235] | – | – | > 80% | < 0.1 µg/mL | < 0.1 µg/mL | 90% | 100% | 90% | 100% | < 3.16 nM | – | –
CN(C)c1c(C(=O)N[C@H]2CCOc3ccccc32)cnc2c(-c3cc(Cl)ncc3Cl)cccc12 [Example 415] | – | – | > 80% | < 0.1 µg/mL | < 0.1 µg/mL | 100% | 100% | 90% | 100% | < 3.16 nM | – | –
O=C(N[C@H]1CCOc2ccccc21)c1cnc2c(-c3cccc4c3OCC4)cccc2c1N1CCOCC1 [Example 204] | – | – | > 80% | < 0.1 µg/mL | < 0.1 µg/mL | – | 100% | – | 90% | 3.16 to 31.6 nM | – | –
CCc1c(C(=O)N[C@H]2CCOc3ccccc32)cnc2c(-c3cc(Cl)cc(Cl)c3Cl)cccc12 [Example 573] | – | – | > 80% | < 0.1 µg/mL | < 0.1 µg/mL | 100% | 100% | 100% | 100% | 3.16 to 31.6 nM | – | –
O=C(N[C@H]1CCOc2ccccc21)c1cnc2c(-c3cccc(Cl)c3Cl)cccc2c1N1CCC(O)C1 (mixture of isomers) [Example 194] | – | – | > 80% | < 0.1 µg/mL | < 0.1 µg/mL | 100% | 100% | 90% | 100% | < 3.16 nM | – | –
COC(=O)[C@H]1CCN(c2c(C(=O)N[C@H]3CCOc4ccccc43)cnc3c(-c4cc(Cl)cc(Cl)c4)cccc23)C1 [Example 281] | – | – | > 80% | < 0.1 µg/mL | < 0.1 µg/mL | 80% | 90% | 80% | 80% | < 3.16 nM | – | –
CC(C)c1c(C(=O)N[C@H]2CCOc3ccccc32)cnc2c(-c3cc(Cl)cc(Cl)c3)cccc12 [Example 359, 8-(3,5-dichlorophenyl)-N-[(4S)-3,4-dihydro-2H-chromen-4-yl]-4-isopropyl-quinoline-3-carboxamide] | – | – | > 80% | < 0.1 µg/mL | < 0.1 µg/mL | 100% | 100% | 100% | 100% | < 3.16 nM | – | –
CN(C)c1c(C(=O)N[C@H]2CCOc3ccccc32)cnc2c(-c3cccc(Cl)c3Cl)c(F)ccc12 [Example 330] | – | – | > 80% | < 0.1 µg/mL | < 0.1 µg/mL | 90% | 90% | 100% | 100% | < 3.16 nM | – | –
CN(C)c1c(C(=O)N[C@H]2CCOc3ccccc32)cnc2c(-c3cc(F)c(F)c(F)c3)cccc12 [Example 47] | – | – | > 80% | < 0.1 µg/mL | < 0.1 µg/mL | 80% | 80% | 90% | 100% | < 3.16 nM | – | > 80%
CC(C)c1c(C(=O)N[C@H]2CCOc3ccccc32)cnc2c(-c3cccc(C(F)(F)F)c3F)cccc12 [Example 408] | – | – | > 80% | < 0.1 µg/mL | < 0.1 µg/mL | 100% | 100% | 90% | 90% | < 3.16 nM | – | –
